From ChEMBL document CHEMBL1955741, “Identification of fused bicyclic heterocycles as potent and selective 5-HT(2A) receptor antagonists for the treatment of insomnia” (Bioorg Med Chem Lett, 2012) come the findings set out here.

SMILES strings stand for the structures. Active and inactive are the calls of the source. The calls are words filed in the database; no cut-off is given here.

Data set [1] has as its target 5-hydroxytryptamine receptor 2A (Homo sapiens, UniProt P28223).
Description: Displacement of [125I]-DOI from recombinant human 5HT2A receptor
Data set [2] addresses T1, 5-hydroxytryptamine receptor 2C (Homo sapiens, UniProt P28335).
T1 sequence (P28335 whole entry): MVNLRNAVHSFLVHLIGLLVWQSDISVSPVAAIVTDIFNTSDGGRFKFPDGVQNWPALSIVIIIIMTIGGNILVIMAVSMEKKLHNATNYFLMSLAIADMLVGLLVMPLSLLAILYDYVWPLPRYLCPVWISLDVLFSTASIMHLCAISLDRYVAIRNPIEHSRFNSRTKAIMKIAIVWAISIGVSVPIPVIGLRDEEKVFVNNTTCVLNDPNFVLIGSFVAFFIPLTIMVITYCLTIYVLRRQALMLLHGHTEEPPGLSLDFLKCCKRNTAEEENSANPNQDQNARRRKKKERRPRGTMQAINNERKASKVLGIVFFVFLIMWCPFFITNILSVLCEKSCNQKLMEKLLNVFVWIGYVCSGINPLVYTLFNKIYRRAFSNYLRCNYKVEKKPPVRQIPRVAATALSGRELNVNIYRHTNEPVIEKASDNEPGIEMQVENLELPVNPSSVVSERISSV

Data set [3] relates to Rattus norvegicus. The data set can be described thus: Total clearance in iv dosed rat. Type of data set: ADME, organism-based. The settings on record: in vivo.
For data set [4], the system named is Rattus norvegicus. The data set can be described thus: Inhibition of DOI-induced hypolocomotion in rat at 3 mg/kg coadministered with DOI 10 mins prior testing. In kind it is functional, organism-based. More on the design: dose 3 mg/kg.
The nature of data set [5]: Plasma concentration in rat at 3 mg/kg after 0.75 hrs. In kind it is ADME, organism-based. Set-up: dose 3 mg/kg.
The subject of data set [6] is Rattus norvegicus. In words: Oral bioavailability in rat. The following applies: in vivo. Type of data set: ADME, organism-based.
For data set [7], the system named is Rattus norvegicus. The data set can be described thus: Volume of distribution at steady state in […] rat. Type of data set: ADME, organism-based. The following applies: in vivo.
A short description of data set [8]: Half life in po dosed rat. In kind it is ADME, organism-based. The following applies: in vivo.
Data set [9] concerns Rattus norvegicus. In words: Inhibition of DOI-induced hypolocomotion in rat at 1 mg/kg coadministered with DOI 10 mins prior testing. In kind it is functional, organism-based. More on the design: dose 1 mg/kg.

5-hydroxytryptamine receptor 2A, sequence (P28223 whole entry): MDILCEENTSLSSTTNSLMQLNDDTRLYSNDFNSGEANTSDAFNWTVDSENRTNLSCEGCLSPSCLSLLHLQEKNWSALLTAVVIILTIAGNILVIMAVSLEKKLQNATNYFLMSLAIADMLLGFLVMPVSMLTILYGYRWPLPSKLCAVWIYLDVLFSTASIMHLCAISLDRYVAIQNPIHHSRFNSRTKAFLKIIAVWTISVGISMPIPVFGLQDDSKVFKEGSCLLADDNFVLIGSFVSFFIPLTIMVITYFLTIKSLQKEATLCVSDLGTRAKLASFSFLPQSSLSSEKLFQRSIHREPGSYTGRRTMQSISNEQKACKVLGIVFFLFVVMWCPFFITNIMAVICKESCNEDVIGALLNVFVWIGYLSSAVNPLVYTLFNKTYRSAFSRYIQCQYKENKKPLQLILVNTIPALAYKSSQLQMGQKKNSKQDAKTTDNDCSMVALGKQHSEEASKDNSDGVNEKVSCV

In general, Ki refers to a dissociation constant, usually derived from enzyme kinetics or from competition with a known ligand. Read a high Ki as a looser hold on the target. For the compound `O=C(c1cnn2cc(Cl)ccc12)N1CCN(CCc2ccc(F)cc2F)CC1`, the Ki was 5.9 nM in data set [1] and 575 nM in data set [2].
What is called clearance is the volume of plasma or blood freed of the substance per unit of time. High values mean a high capacity for elimination, low ones a low capacity for elimination. In general, bioavailability refers to dose-corrected exposure relative to a reference, in per cent. A high value points to much systemic uptake. Broadly, the half-life is the time in which the quantity being followed falls by half. Read a low half-life as rapid decline. Consider `Cn1cc(Br)c(C(=O)N2CCN(CCc3ccc(F)cc3)CC2)n1`, for which the clearance in [3] was 155 mL/min/kg. The result in data set [4] was Active. The concentration at 0.75 h in data set [5] was found to be 8.3 ng/mL. For the same compound, in data set [6], the bioavailability was found to be 9%. Besides, the Vdss in data set [7] worked out at 8.1 L/kg. The compound further displayed a half-life in data set [8] of 1.4 h.
With `Cc1nc2ccccn2c1C(=O)N1CCN(CCc2ccc(F)cc2F)CC1`, the Ki in [1] worked out at 3.5 nM; in data set [2] it was 997 nM.
`O=C(c1cc2ccccn2n1)N1CCN(CCc2ccc(F)cc2F)CC1`: the Ki in [1] came to 5.7 nM; in [2], 467 nM.
As for `O=C(c1cccn2cc(Br)nc12)N1CCN(CCc2ccc(F)cc2F)CC1`, the values for the inhibition constant (Ki) in [1] and in data set [2] were 1.7 nM and 682 nM, respectively.
As to `O=C(c1cc2ncccn2n1)N1CCN(CCc2ccc(F)cc2F)CC1`, the figures for the Ki in data set [1] and in data set [2] were 5.6 nM and 1360 nM, respectively.
On to `O=C(c1cn2ccccc2n1)N1CCN(CCc2ccc(F)cc2F)CC1`, for which the inhibitory constant (Ki) in data set [1] is 4.3 nM; in data set [2] it was 596 nM.
As to `O=C(c1cnn2c1CCCC2)N1CCN(CCc2ccc(F)cc2F)CC1`, the Ki in [1] was determined as 18 nM; in [2], 2880 nM.
The corresponding values for `O=C(c1cccn2cc(Cl)nc12)N1CCN(CCc2ccc(F)cc2F)CC1` are 1.5 nM and 391 nM.
For the compound `O=C(c1nn2ccccc2c1Cl)N1CCN(CCc2ccc(F)cc2F)CC1`, the figures for the inhibitory constant (Ki) in data set [1] and in [2] were 0.6 nM and 394 nM, respectively.
For `Cn1cc(Br)c(C(=O)N2CCN(CC(=O)c3ccc(F)cc3)CC2)n1`, the outcome in data set [9] was Active.
`Nc1cccc2nc(C(=O)N3CCN(CCc4ccc(F)cc4F)CC3)cn12`: the Ki in data set [1] is 1.4 nM; in [2] it was 152 nM.
